# Measurements reported in patent US4933346A, “Diarylalkyl piperazine derivatives, a process for their preparation, their use, and medicaments containing them” (Hoechst Aktiengesellschaft, priority 1987, dated 1990).
# Where a name gives a salt, the structure may show the parent alone.
# Target: ^3 H-nitrendipine binding, membrane preparation obtained from the cortex of the rat brain
# Assay: displacement of tritium-labeled nitrendipine in a membrane preparation from the cortex of the rat brain
# Conditions: ^3 H-nitrendipine 0.1 nM, 25° C., 60 min, pH 7.4; unspecific binding with 1 μM nifedipine
# Procedure: We carried out this test in a membrane preparation obtained from the cortex of the rat brain and washed several times, the method which we used being essentially that of R. J. Gould et al. (Proc. Natl. Acad. Sci. USA 79, 3656 [1982]). […] The membrane fractions were removed by vacuum filtration through Whatman GF/F fiber glass filters, and the radioactivity was measured in a liquid scintillation counter. We determined the unspecific ^3 H-nitrendipine binding in the presence of 1 μM nifedipine. The IC50 is determined as characteristic quantity, i.e. the concentration of test substance which is able to displace 50% of the radiolabeled nitrendipine.
row,Compound,IC50 [nM]
1,"Cc1ccc(SCCN2CCN(CCCC(c3ccc(F)cc3)c3ccc(F)cc3)CC2)cc1 [Example 2, 1-[4,4-bis(4-fluorophenyl)butyl]-4-[2-(4-methylphenylthio)ethyl]piperazine dihydrochloride]",20
2,"Fc1ccc(SCCN2CCN(CCCC(c3ccc(F)cc3)c3ccc(F)cc3)CC2)cc1 [Example 3, 1-[4,4-bis(4-fluorophenyl)butyl]-4-[2-(4-fluorophenylthio)ethyl]piperazine dihydrochloride]",7
3,"Cc1cccc(C)c1NC(=O)CN1CCN(CCCC(c2ccc(F)cc2)c2ccc(F)cc2)CC1 [Lidoflazine, lidoflazine, reference compound]",430
4,"O=[N+]([O-])c1ccc(SCCN2CCN(CCCC(c3ccc(F)cc3)c3ccc(F)cc3)CC2)cc1 [Example 4, 1-[4,4-bis(4-fluorophenyl)butyl]-4-[2-(4-nitrophenylthio)ethyl]piperazine dihydrochloride]",22

# Now those with a lower IC50, led by results:
row,IC50 [nM],Compound
1,4,"Fc1ccc(C(CCCN2CCN(CCSc3ccc(Cl)cc3)CC2)c2ccc(F)cc2)cc1 [Example 1, 1-[4,4-bis(4-fluorophenyl)butyl]-4-[2-(4-chlorophenylthio)ethyl]piperazine]"
2,1.2,"Fc1ccc(C(CCCN2CCN(CCSc3cccc(Cl)c3)CC2)c2ccc(F)cc2)cc1 [Example 5, 1-[4,4-bis(4-fluorophenyl)butyl]-4-[2-(3-chlorophenylthio)ethyl]piperazine dihydrochloride]"
